Assay: xn = mol fraction of the nth substance listed
Details: 101.3 kPa, Liquid

O=C1CCCCC1 [cyclohexanone] + CCCCCC(C)O
x1 = 1
Details	mass density [kg/m3]	viscosity [mPa·s]
298.15 K	941.91	2.057
303.15 K	937.24	1.847
308.15 K	932.67	1.694
313.15 K	927.72	1.546

O=C1CCCCC1 [cyclohexanone] + CCCC(C)O
x1 = 1
Details	mass density [kg/m3]	viscosity [mPa·s]
298.15 K	941.91	2.057
303.15 K	937.24	1.847
308.15 K	932.67	1.694
313.15 K	927.72	1.546

CCC(C)O (configuration not stated) [butan-2-ol] + O=C1CCCCC1
x2 = 0
Details	mass density [kg/m3]	viscosity [mPa·s]
298.15 K	803.01	3.104
303.15 K	798.29	2.597
308.15 K	793.57	2.152
313.15 K	789.15	1.733

O=C1CCCCC1 [cyclohexanone] + CC(C)O
Details	mass density, 298.15 K [kg/m3]	mass density, 303.15 K [kg/m3]	mass density, 308.15 K [kg/m3]	mass density, 313.15 K [kg/m3]	viscosity, 298.15 K [mPa·s]	viscosity, 303.15 K [mPa·s]	viscosity, 308.15 K [mPa·s]	viscosity, 313.15 K [mPa·s]
x1 = 0.0812	797.69	792.97	788.11	783.28	1.689	1.489	1.301	1.142
x1 = 0.1576	812.54	807.67	802.73	797.79	1.436	1.268	1.098	0.961
x1 = 0.2398	827.76	822.83	817.68	812.71	1.236	1.081	0.934	0.817
x1 = 0.3495	846.99	841.93	836.59	831.76	1.067	0.934	0.809	0.715
x1 = 0.4363	861.43	856.27	851.05	846.26	1.023	0.899	0.779	0.689
x1 = 0.5601	880.96	875.76	870.51	865.33	1.076	0.951	0.845	0.751
x1 = 0.6502	894.41	889.21	884.09	878.95	1.177	1.056	0.949	0.854
x1 = 0.7403	907.32	902.15	897.23	892.17	1.331	1.202	1.087	0.995
x1 = 0.8481	922.15	917.06	912.28	907.09	1.581	1.437	1.301	1.211
x1 = 0.9384	934.01	929.05	924.41	919.35	1.845	1.675	1.537	1.412
x1 = 1	941.91	937.24	932.67	927.72	2.057	1.847	1.694	1.546

O=C1CCCCC1 [cyclohexanone] + CCCCC(C)O
x1 = 1
Details	mass density [kg/m3]	viscosity [mPa·s]
298.15 K	941.91	2.057
303.15 K	937.24	1.847
308.15 K	932.67	1.694
313.15 K	927.72	1.546

CCCCCC(C)O (configuration not stated) [2-heptanol] + O=C1CCCCC1
Details	mass density, 298.15 K [kg/m3]	mass density, 303.15 K [kg/m3]	mass density, 308.15 K [kg/m3]	mass density, 313.15 K [kg/m3]	viscosity, 298.15 K [mPa·s]	viscosity, 303.15 K [mPa·s]	viscosity, 308.15 K [mPa·s]	viscosity, 313.15 K [mPa·s]
x2 = 0	813.18	809.26	805.01	801.14	5.023	4.151	3.478	2.852
x2 = 0.0826	820.37	816.21	811.69	807.61	4.282	3.546	2.94	2.412
x2 = 0.1625	827.64	823.36	818.81	814.53	3.64	2.986	2.448	1.989
x2 = 0.2415	835.26	830.91	826.28	821.87	3.081	2.473	1.999	1.604
x2 = 0.3506	846.69	842.19	837.46	832.94	2.401	1.874	1.482	1.151
x2 = 0.44	856.83	852.22	847.44	842.79	1.954	1.468	1.141	0.862
x2 = 0.5603	871.72	866.99	862.12	857.35	1.513	1.107	0.849	0.627
x2 = 0.6494	883.79	878.98	874.11	869.26	1.308	0.971	0.773	0.576
x2 = 0.7394	896.96	892.15	887.29	882.32	1.243	0.976	0.816	0.647
x2 = 0.85	914.67	909.91	905.04	900.06	1.391	1.193	1.054	0.91
x2 = 0.9392	930.26	925.58	920.79	915.85	1.727	1.535	1.411	1.256

CCCCC(C)O (configuration not stated) [2-hexanol] + O=C1CCCCC1
Details	mass density, 298.15 K [kg/m3]	mass density, 303.15 K [kg/m3]	mass density, 308.15 K [kg/m3]	mass density, 313.15 K [kg/m3]	viscosity, 298.15 K [mPa·s]	viscosity, 303.15 K [mPa·s]	viscosity, 308.15 K [mPa·s]	viscosity, 313.15 K [mPa·s]
x2 = 0	810.14	806.13	802.06	797.96	4.101	3.411	2.819	2.219
x2 = 0.0821	818.43	814.12	809.89	805.91	3.432	2.834	2.278	1.686
x2 = 0.1612	826.61	822.29	818.07	814.07	2.879	2.346	1.823	1.307
x2 = 0.2409	835.25	830.81	826.44	822.41	2.406	1.932	1.453	1.024
x2 = 0.3496	847.88	843.37	838.88	834.71	1.896	1.477	1.122	0.781
x2 = 0.4391	858.93	854.32	849.76	845.48	1.591	1.23	0.949	0.679
x2 = 0.56	874.62	869.92	865.28	860.83	1.359	1.08	0.873	0.655
x2 = 0.649	886.88	882.07	877.39	872.97	1.325	1.082	0.907	0.727
x2 = 0.7391	899.87	895.12	890.41	885.97	1.388	1.173	1.026	0.85
x2 = 0.8492	916.79	912.01	907.19	902.71	1.576	1.4	1.249	1.068
x2 = 0.9395	931.44	926.63	921.93	917.21	1.842	1.662	1.505	1.326

CCCC(C)O (configuration not stated) [pentan-2-ol] + O=C1CCCCC1
Details	mass density, 298.15 K [kg/m3]	mass density, 303.15 K [kg/m3]	mass density, 308.15 K [kg/m3]	mass density, 313.15 K [kg/m3]	viscosity, 298.15 K [mPa·s]	viscosity, 303.15 K [mPa·s]	viscosity, 308.15 K [mPa·s]	viscosity, 313.15 K [mPa·s]
x2 = 0	805.41	801.21	796.64	792.51	3.499	2.801	2.334	1.993
x2 = 0.0824	815.31	810.99	806.31	801.99	2.631	2.307	1.891	1.596
x2 = 0.1615	825.12	820.69	815.92	811.53	2.178	1.893	1.541	1.285
x2 = 0.2401	835.08	830.58	825.68	821.06	1.822	1.58	1.265	1.056
x2 = 0.3492	849.18	844.64	839.56	834.77	1.465	1.241	1.007	0.838
x2 = 0.4397	861.19	856.51	851.41	846.47	1.277	1.081	0.881	0.75
x2 = 0.5607	877.71	872.97	867.74	862.65	1.191	1.016	0.865	0.771
x2 = 0.6496	890.14	885.41	880.19	875.09	1.23	1.072	0.935	0.848
x2 = 0.7399	903.04	898.27	893.11	888.08	1.354	1.205	1.062	0.982
x2 = 0.8498	919.21	914.43	909.42	904.33	1.597	1.417	1.294	1.194
x2 = 0.9396	932.71	928.12	923.33	917.99	1.855	1.685	1.523	1.388

CC(C)O [propan-2-ol] + O=C1CCCCC1
x2 = 0
Details	mass density [kg/m3]	viscosity [mPa·s]
298.15 K	781.09	2.055
303.15 K	776.57	1.788
308.15 K	771.87	1.563
313.15 K	767.36	1.378
